Where two headings read alike, the source gives them in different places.
Tested on: Fusarium graminearum
Assay type: cell-based
Conditions: enzyme disk 119 nM where (+) enzyme, 5 days

Substance: mancozeb
- Reduction in F. graminearum growth relative to non-treated controls (Mancozeb 0.5 mg/l): 6% cd
- Reduction in F. graminearum growth relative to non-treated controls (Mancozeb 2 mg/l): 1% d
- Reduction in F. graminearum growth relative to non-treated controls (Mancozeb 5 mg/l): 17% cd
- Reduction in F. graminearum growth relative to non-treated controls (Mancozeb 10 mg/l): 26% bcd

Source: patent US10993436B2 (priority 2016, dated 2021)
